Data on 2 molecules can be found in ChEMBL document CHEMBL1159347, “A novel constituent from Rollinia mucosa, rollicosin, and a new approach to develop annonaceous acetogenins as potential antitumor agents” (J Nat Prod, 2003).

Assay [1] in a line: Cytotoxicity against human HepG2(2.2.15) cells. The assay is classed as functional, cell-based.
Another assay has as its system HepG2. The assay can be described thus: Cytotoxicity against human HepG2 cells. The assay is classed as functional, cell-based.

Structures are written as SMILES. Converted amounts (≈) assume the structure as drawn.

For orientation: IC50 means the point on the concentration scale where inhibition reaches its midpoint. Read a low IC50 as greater potency. On to `COc1cccc2c1C(=O)c1c(O)c3c(c(O)c1C2=O)C[C@@](O)(C(=O)CO)C[C@@H]3O[C@H]1C[C@H](N)[C@H](O)[C@H](C)O1` [DOXORUBICIN], for which, in assay [1], half-maximal inhibition (IC50) was put at 0.45 µg/mL (≈ 0.828 µM).

On to `C[C@H]1C=C(C[C@H](O)CCCCCCCCCC[C@@H](O)[C@H]2CCC(=O)O2)C(=O)O1` [ROLLICOSIN], for which the IC50 in the assay with HepG2 amounted to 0.1 µg/mL (≈ 0.252 µM); in assay [1], 0.021 µg/mL (≈ 0.053 µM).
